IC50 and melting point data for 31 compounds are collected here from patent US6828315B1, “1-Amino triazoloc4,3-a! quinazoline-5-ones and/or -5-thiones inhibiting phosphodiesterase IV” (Warner-Lambert LLC, priority 1999, dated 2004).

The target of data set [1] is type 4 phosphodiesterases (PDE4). The data set is described as follows: Inhibition of the phosphodiesterase (PDE4), enzymatic preparation from line U937. It counts as biochemical. The settings on record: PDE4 from cytosolic preparation of human cell line U937. As for the experimental part:
The capacity of the formula (I) compounds of the invention to inhibit the cyclic nucleotide phosphodiesterases is evaluated by their Cl50 measurement (necessary concentration to inhibit 50% of enzymatic activity).
The type 4 phosphodiesterases are obtained from a cytosolic preparation extracted from the human origin cellular line U937 according to a method adapted from T. J. Torphy and al., 1992, J.Pharm.Exp. Ther. 263: 1195-1205
The other classes of phosphodiesterases are obtained after partial purification FPLC on Mono Q column. (anion exchange column) according to a method adapted from Lavan B. E., Lakey T., Houslay M. D. Biochemical Pharmacology, 1989, 38(22), 4123-4136., and from Silver P. J and al., 1988, Eur.J. Pharmacol. 150: 85-94, either, from human origin cellular lines for PDE 1 (monocytar line TPH1) and PDE5 (line MCF7 issued from an adenocarcinoma), or from dog aorta for PDE 3, or for the human PDE3A, from gene cloning in insect cells SF21 in baculovirus, according to a method adapted from Luckow, V. A. and al., 1991 in Recombinant DNA Technology&Applications.,eds. Prokop, Bajpai,R. K.&Ho,C. S., pp97-152. The enzymatic activity measurement of the different PDE classes, and in particular the PDE 4, is performed according to a method adapted from W. J. Thompson and al. 1979, Advances in Cyclic Nucleotide Research, Vol. 10: 69-92, ed. G. Brooker and al. Raven Press, NY.
For the Cl50 determination, the enzymatic activity is measured in the presence of inhibitor within concentration margins of 0.1 to 100 μM.
The following table illustrates the PDE4 inhibitory activity from enzymatic preparation obtained from the line U937.

A word on the IC50: it is the concentration that inhibits the measured activity by half. Usually melting point stands for the temperature of the solid-liquid transition.

Structures can show the parent of a compound that is named as a salt.

Compound `Nc1ccc2c(c1)c(=O)n(C/C=C/c1ccccc1)c1nnc(N3CCCC3)n21` [Compound 223, 7-Amino-4-((E)-3-phenyl-allyl)-1-pyrrolidin-1-yl-4H-[1,2,4]triazolo[4,3-a]quinazolin-5-one] had an IC50 in data set [1] of 12 nM. `O=c1c2cc(Cl)ccc2n2c(N3CCCCCC3)nnc2n1Cc1ccc(Cl)cc1` [Compound 11, 1-(azepan-1-yl)-7-chloro-4-(4-chlorobenzyl)-4H-[1,2,4]triazolo[4,3-a]quinazolin-5-one]: the melting point amounted to 166 °C. This compound yielded a concentration for half-maximal inhibition (IC50) in data set [1] of 80 nM. In the same order, the values of `O=c1c2cc(Br)ccc2n2c(N3CCCC3)nnc2n1Cc1ccc(F)cc1` [Compound 44, 7-Bromo-4-(4-fluoro-benzyl)-1-pyrrolidin-1-yl-4H-[1,2,4]triazolo[4,3-a]quinazolin-5-one] are 166 °C and 90 nM. In the same order, the values of `COc1ccc(Cn2c(=O)c3cc(Br)ccc3n3c(N4CCCC4)nnc23)cc1` [Compound 49, 7-Bromo-4-(4-methoxy-benzyl)-1-pyrrolidin-1-yl-4H-[1,2,4]triazolo[4,3-a]quinazolin-5-one] are 169 °C and 80 nM.

`CN(C)c1nnc2n(C/C=C/c3ccccc3)c(=O)c3cc(N)ccc3n12` [Compound 229, 7-Amino-1-dimethylamino-4-((E)-3-phenyl-allyl)-4H-[1,2,4]triazolo[4,3-a]quinazolin-5-one] showed a melting point of 198 °C. The same compound displayed an IC50 in data set [1] of 80 nM. In the same order, the values of `COc1ccc(Cn2c(=O)c3cc(Br)ccc3n3c(N4CCCC4)nnc23)cc1OC` [Compound 52, 7-Bromo-4-(3,4-dimethoxy-benzyl)-1-pyrrolidin-1-yl-4H-[1,2,4]triazolo[4,3-a]quinazolin-5-one] are 151 °C and 30 nM. In the same order, the values of `O=c1c2cc(Cl)ccc2n2c(N3CCCCCC3)nnc2n1Cc1ccc(F)cc1` [Compound 13, 1-(azepan-1-yl)-7-chloro-4-(4-fluorobenzyl)-4H-[1,2,4]triazolo[4,3-a]quinazolin-5-one] are 150 °C and 60 nM.

For the compound `CNC(=O)Cc1ccc(Cn2c(=O)c3cc(Br)ccc3n3c(N4CCCC4)nnc23)cc1` [Compound 240, 2-[4-(7-Bromo-5-oxo-1-pyrrolidin-1-yl-5H-[1,2,4]triazolo[4,3-a]quinazolin-4-ylmethyl)-phenyl]-N-methyl-acetamide], half-maximal inhibition in data set [1] (IC50) required 13 nM. As to `COC(=O)Cc1ccc(Cn2c(=O)c3cc(Br)ccc3n3c(N4CCCC4)nnc23)cc1` [Compound 239, [4-(7-Bromo-5-oxo-1-pyrrolidin-1-yl-5H-[1,2,4]triazolo[4,3-a]quinazolin-4-ylmethyl)-phenyl]-acetic acid methyl ester], the concentration for half-maximal inhibition (IC50) in data set [1] is 5 nM. `O=c1c2cc(Br)ccc2n2c(N3CCCCCC3)nnc2n1Cc1ccc(Cl)cc1` [Compound 32, 1-(azepan-1-yl)-7-bromo-4-(4-chloro-benzyl)-4H-[1,2,4]triazolo[4,3-a]quinazolin-5-one]: the melting point is 179 °C. The IC50 in data set [1] is 53 nM. As to `O=c1c2cc(Cl)ccc2n2c(N3CCCCCC3)nnc2n1CC=Cc1ccccc1` [Compound 1, 1-(Azepan-1-yl)-7-chloro-4-(3-phenylallyl)-4H-[1,2,4]triazolo[4,3-a]quinazolin-5-one], the IC50 in data set [1] came out at 54 nM. Still for that read-out and setting: the same measure for `Nc1ccc(Cn2c(=O)c3cc(Br)ccc3n3c(N4CCCC4)nnc23)cc1` [Compound 218, 4-(4-Amino-benzyl)-7-bromo-1-pyrrolidin-1-yl-4H-[1,2,4]triazolo[4,3-a]quinazolin-5-one]: 48 nM.

In data set [1], `Cc1ccc2c(c1)c(=O)n(Cc1ccc(CC(=O)O)cc1)c1nnc(N(C)C)n21` [Compound 102, [4-(1-Dimethylamino-7-methyl-5-oxo-5H-[1,2,4]triazolo[4,3-a]quinazolin-4-ylmethyl)-phenyl]-acetic acid] yielded an IC50 of 60 nM. Same read-out and setting: the same measure for `O=c1c2cc(Br)ccc2n2c(N3CCCCC3)nnc2n1CC=Cc1ccccc1` [Compound 76, 1-(piperidin-1-yl)-7-bromo-4-(3-phenylallyl)-4H-[1,2,4]triazolo[4,3-a]quinazolin-5-one]: 70 nM; for `O=c1c2cc(Br)ccc2n2c(N3CCCC3)nnc2n1Cc1ccccc1` [Compound 164, 4-benzyl-7-bromo-1-(pyrrolidin-1-yl)-4H-[1,2,4]triazolo[4,3-a]-quinazolin-5-one]: 90 nM.

In turn, `CC(C)Nc1ccc2c(c1)c(=O)n(Cc1ccccc1)c1nnc(N3CCCC3)n21` [Compound 234, 4-Benzyl-7-isopropylamino-1-pyrrolidin-1-yl-4H-[1,2,4]triazolo[4,3-a]quinazolin-5-one] displayed an IC50 in data set [1] of 2690 nM. Regarding `COc1ccc(Cn2nc(N3CCCCCC3)n3c4ccc(Br)cc4c(=O)nc23)cc1OC` [Compound 137, 1-(azepan-1-yl)-7-bromo-3-(3,4dimethoxybenzyl)-3H-[1,2,4]triazolo[4,3-a]quinazolin-5-one], the melting point was 174 °C. Same read-out and setting: the same measure for `CCN(CC)CCn1c(=O)c2cc(Br)ccc2n2c(N3CCCC3)nnc12` (as salt: HCl) [Compound 69, 7-Bromo-4-(2diethylamino-ethyl)-1-pyrrolidin-1-yl-4H-[1,2,4)triazolo[4,3-a]quinazolin-5-one]: 215 °C; for `Cn1c(=O)c2cc(F)ccc2n2c(N3CCCCCC3)nnc12` [Compound 212, 1-(azepan-1-yl)-7-fluoro-4-methyl-4H-[1,2,4]triazolo[4,3-a]-quinazolin-5-one]: 136 °C. In turn, `Cc1ccc2c(c1)c(=O)nc1n(CC=Cc3ccccc3)nc(N3CCCCCC3)n21` [Compound 157, 1-(azepan-1-yl)-7-methyl-3-(3-phenylallyl)-3H-[1,2,4]triazolo[4,3-a]quinazolin-5-one] returned a melting point of 193 °C.

`O=c1c2cc(Cl)ccc2n2c(N3CCCC3)nnc2n1Cc1cccnc1` [Compound 31, 7-Chloro-4-pyridin-3-ylmethyl-1-pyrrolidin-1-yl-4H-[1,2,4]triazolo[4,3-a]quinazolin-5-one] returned a melting point of 176 °C. Same read-out and setting: with `N#Cc1ccc(Cn2c(=O)c3cc(N)ccc3n3c(N4CCCC4)nnc23)cc1` [Compound 226, 4-(7-Amino-5-oxo-1-pyrrolidin-1-yl-5H-[1,2,4]triazolo[4,3-a]quinazolin-4-ylmethyl)-benzonitrile] the figure was 152 °C; with `N#Cc1ccc(Cn2nc(N3CCCCCC3)n3c4ccc(Br)cc4c(=O)nc23)cc1` [Compound 136, 4(1-(azepan-1-yl)-7-bromo-5-oxo-5H-[1,2,4]triazolo[4,3-a]-quinazolin-3-ylmethyl)-benzonitrile], 293 °C; with `Cn1c(=O)c2cc(Cl)ccc2n2c(N3CCCCC3)nnc12` [Compound 168, 7-chloro-4-methyl-1-(piperidin-1-yl)4H-[1,2,4]triazolo[4,3-a]-quinazolin-5-one], 192 °C. On the same count and under the same terms, the same measure for `Cc1noc(C)c1Cn1c(=O)c2cc(Br)ccc2n2c(N3CCCC3)nnc12` [Compound 64, 7-Bromo-4-(3,5-dimethyl-isoxazol-4-ylmethyl)-1-pyrrolidin-1-yl-4H-[1,2,4]triazolo[4,3-a]quinazolin-5-one]: 221 °C; for `O=c1nc2n(C/C=C/c3ccccc3)nc(N3CCCCC3)n2c2ccc(Br)cc12` [Compound 141, 7-Bromo-3-((E)-3-phenyl-allyl)-1-piperidin-1-yl-3H-[1,2,4]triazolo[4,3-a]quinazolin-5one]: 187 °C.

`COc1cc(Cn2c(=O)c3cc(Br)ccc3n3c(N4CCCC4)nnc23)cc(OC)c1OC` [Compound 55, 7-Bromo-1-pyrrolidin-1-yl-4-(3,4,5-trimethoxy-benzyl)-4H-[1,2,4]triazolo[4,3-a]quinazolin-5-one] came in with a melting point of 141 to 143 °C. Regarding `Cc1ccc2c(c1)c(=O)n(CC=Cc1cccnc1)c1nnc(N3CCSCC3)n21` [Compound 100, 7-Methyl-4-(3-pyridin-3-yl-allyl)-1-thiomorpholin-4-yl-4H-[1,2,4]triazolo[4,3-a]quinazolin-5-one], the melting point was 230 °C. Still for that read-out and setting: with `Cn1c(=O)c2cc(Cl)ccc2n2c(N3CCCC3)nnc12` [Compound 205, 7-chloro-4-methyl-1-(pyrrolidin-1-yl)-4H-[1,2,4]triazolo[4,3-a]-quinazolin-5-one] the figure was 203 to 205 °C; with `Cn1c(=O)c2cc(Cl)ccc2n2c(N3CCCc4ccccc43)nnc12` [Compound 208, 7-chloro-1-(3,4-dihydro-2H-quinolin-1-yl)-4-methyl-4H-[1,2,4]triazolo[4,3-a]quinazolin-5-one], 204 °C. On the same count and under the same terms, with `COc1ccc(C(=O)Cn2nc(N3CCCCCC3)n3c4ccc(Cl)cc4c(=O)nc23)cc1` [Compound 131, 1-(azepan-1-yl)-7-chloro-3-(2-(4-methoxyphenyl)-2-oxoethyl]-3H-[1,2,4]triazolo[4,3-a]quinazolin-5-one] the figure was 238 °C.
